Earlier results in US20210319872A1, “DRUG AND DEVICE COMBINATION PRODUCTS WITH IMPROVED SAFETY AND EFFICACY PROFILES” (priority 2016, published 2021).
Like-named read-outs stand apart in the source and are kept apart here.

[1] = nonvalvular atrial fibrillation

In the case of `CS(=O)(=O)O.Fc1ccc([C@@H]2CCNC[C@H]2COc2ccc3c(c2)OCO3)cc1` [Brisdelle], the Asthenia (in vivo) is given as “Neurologic: Asthenia (2.9% to 22%), Dizziness (6% to 14%),”, the Constipation (in vivo) is given as “Gastrointestinal: Constipation (4.9% to 16%), Diarrhea (7.9% to” and the Diaphoresis (in vivo) is given as “Dermatologic: Diaphoresis (1% to 14%)”. For the same compound, the Dizziness (in vivo) was “Neurologic: Asthenia (2.9% to 22%), Dizziness (6% to 14%),”, the Insomnia (in vivo) was “vasomotor symptoms, 6.3%), Insomnia (11% to 24%), Somnolence” and the Nausea (in vivo) was ≤ 19.2%), Loss of appetite (2% to 9%), Nausea (up to 36.3%),. For the same compound, the Reduced libido (in vivo) was 9%), Reduced libido (males, 6% to 15%; females, 0% to 9%), the “Serious side effect, Other” value (in vivo) was “Other: Serotonin syndrome” and the “Serious side effect, Psychiatric” value (in vivo) was “Psychiatric: Depression, Exacerbation, Suicidal thoughts, Suicide”. The Somnolence (in vivo) was “(12.7% to 24%), Tremor (up to 14.7%)”, the Tremor (in vivo) was “(12.7% to 24%), Tremor (up to 14.7%)” and the Xerostomia (in vivo) was “Xerostomia (10.8% to 20.6%)”.

In the case of `O=C(Nc1c(Cl)cncc1Cl)c1ccc(OC(F)F)c(OCC2CC2)c1` [Daliresp], the Backache (in vivo) is listed as “Musculoskeletal: Backache (3.2%)”, the Decrease in appetite (in vivo) is listed as 2.1% and the Diarrhea (in vivo) is listed as 9.5%. For the same compound, the Dizziness (in vivo) was 2.1%, the Headache (in vivo) was 4.4% and the Influenza (in vivo) was “Immunologic: Influenza (2.8%)”. For the same compound, the Insomnia (in vivo) was 2.4%, the Nausea (in vivo) was “Nausea (4.7%)” and the “Serious side effect, Psychiatric” value (listed without frequency) was “Psychiatric: Suicidal thoughts”.

In the case of `C[C@@H](Cc1ccccc1)NC(=O)[C@@H](N)CCCCN` [Lisdexamfetamine (Vyvanse)], the Anxiety (in vivo) is listed as “Psychiatric: Anxiety (Adults, 5% to 6%), Irritability (pediatrics,”, the “Common side effects, listed without incidence” value (in vivo) is listed as “Endocrine metabolic: Decreased body growth, Weight decreased” and the Diarrhea (in vivo) is listed as “Gastrointestinal: Diarrhea (adults, 7%), Loss of appetite (adults, 8%”. For the same compound, the Irritability (in vivo) was 10%), the Rash (in vivo) was “Dermatologic: Rash (pediatrics, 3%)” and the Upper abdominal pain (in vivo) was 6%), Upper abdominal pain (pediatrics, 12%), Vomiting. The Vomiting (in vivo) was “(pediatrics, 9%), Xerostomia (Adults, 26% to 36%; pediatrics, 4%”, the Weight decreased (in vivo) was “(pediatrics, 9%)” and the Xerostomia (in vivo) was “(pediatrics, 9%), Xerostomia (Adults, 26% to 36%; pediatrics, 4%”.

For `CCCCc1nc(Cl)c(CO)n1Cc1ccc(-c2ccccc2-c2nnn[nH]2)cc1` [Losartan (Cozaar)], the Anemia (in vivo) is listed as “Hematologic: Anemia (14%)”, the Chest pain (in vivo) is listed as “Cardiovascular: Chest pain (12%), Hypotension (7%)” and the Cough (in vivo) is listed as “Respiratory: Cough (10%)”. The Diarrhea (in vivo) was “Gastrointestinal: Diarrhea (15%)”, the Dizziness (in vivo) was “Neurologic: Asthenia, Dizziness (3%)” and the Hyperkalemia (in vivo) was “Endocrine metabolic: Hyperkalemia (7%), Hypoglycemia (14%)”. The Hypoglycemia (in vivo) was “Endocrine metabolic: Hyperkalemia (7%), Hypoglycemia (14%)” and the Hypotension (in vivo) was “Cardiovascular: Chest pain (12%), Hypotension (7%)”.

In the case of `CC(CCc1ccccc1)NCC(O)c1ccc(O)c(C(N)=O)c1.Cl` (centres unmarked), the Dizziness (in vivo) is given as “Neurologic: Dizziness (9% to 20%)”, the Fatigue (in vivo) is given as “Other: Fatigue (11%)” and the Has tingling sensation (in vivo) is given as “Dermatologic: Has tingling sensation (7%.)”. For the same compound, the Nasal congestion (in vivo) was “Respiratory: Nasal congestion (3%)”, the Nausea (in vivo) was “Gastrointestinal: Nausea (14%)” and the Orthostatic hypotension (in vivo, iv) was “Cardiovascular: Orthostatic hypotension (1%, oral; 58%, IV)”. The Orthostatic hypotension (in vivo, po) was “Cardiovascular: Orthostatic hypotension (1%, oral; 58%, IV)”.

In the case of `CCCCCCOC(=O)NC(=N)c1ccc(NCc2nc3cc(C(=O)N(CCC(=O)OCC)c4ccccn4)ccc3n2C)cc1` [Pradaxa], the Gastroesophageal reflux disease (Atrial fibrillation) is given as “disease (Atrial fibrillation, 5.5%), Gastrointestinal hemorrhage”, the Indigestion (DVT and pulmonary embolism) is given as “pulmonary embolism, 7.5%)” and the Intracranial hemorrhage (DVT and pulmonary embolism) is given as 0.1%. For the same compound, the Bleeding (DVT and pulmonary embolism prophylaxis) was 10.5%, the “Serious side effect, Hematologic” value (listed without frequency) was “Thrombosis” and the “Serious side effect, Immunologic” value (listed without frequency) was “Immunologic: Anaphylaxis”. For the same compound, the “Serious side effect, Respiratory” value (listed without frequency) was “Respiratory: Bleeding, Alveolar”, the Bleeding [1] was 16.6% and the “Bleeding, Major” value [1] was 3.3%. The Gastrointestinal hemorrhage [1] was 6.1%, the “Gastrointestinal hemorrhage, Major” value [1] was 1.6%) and the Intracranial hemorrhage [1] was “(nonvalvular atrial fibrillation, 0.3%; DVT and pulmonary”. For the same compound, the Myocardial infarction [1] was 0.7%.

In the case of Nesiritide (Natrecor), the “Dizziness (incidence)” value (in vivo) is listed as “Neurologic: Dizziness (2%), Headache (7%)”, the “Headache (incidence)” value (in vivo) is listed as “Neurologic: Dizziness (2%), Headache (7%)” and the “Hypotension (incidence)” value (in vivo) is listed as “Cardiovascular: Hypotension (4% to 17%)”. For the same compound, the “Nausea (incidence)” value (in vivo) was “Gastrointestinal: Nausea (3%)” and the “Serum creatinine raised (incidence)” value (in vivo) was “Renal: Serum creatinine raised (17% to 31.4%)”.

For `CCCC(=O)Nc1ccc(OCC(O)CNC(C)C)c(C(C)=O)c1` (centres unmarked) [Acebutolol (Sectral)], the Angina (in vivo) is listed as “Cardiovascular: Angina (2%), Bradyarrhythmia (2%), Heart failure”, the Bradyarrhythmia (in vivo) is listed as “Cardiovascular: Angina (2%), Bradyarrhythmia (2%), Heart failure” and the Dizziness (in vivo) is listed as “Neurologic: Dizziness (6%), Headache (6%)”. The Fatigue (in vivo) was “Other: Fatigue (11%)”, the Headache (in vivo) was “Neurologic: Dizziness (6%), Headache (6%)” and the Heart failure (in vivo) was “(2%)”.

For `CC(=O)O[C@H]1CC[C@@]2(C)C(=CC[C@@H]3[C@@H]2CC[C@]2(C)C(c4cccnc4)=CC[C@@H]32)C1` [Zytiga], the ALT/SGPT level raised (in vivo) is listed as “Hepatic: ALT/SGPT level raised (11.1% to 41.9%), AST/SGOT”, the AST/SGOT level raised (in vivo) is listed as “level raised (30.6% to 37.3%), Serum bilirubin raised (6.6%)” and the Adrenal insufficiency (in vivo) is listed as “Endocrine metabolic: Adrenal insufficiency (0.5%), Hypokalemia”. The Alkaline phosphatase raised (in vivo) was “Hepatic: Alkaline phosphatase raised (Greater than 20%)”, the Anemia (in vivo) was “Hematologic: Anemia (Greater than 20%), Lymphocytopenia, All” and the Cardiac dysrhythmia (in vivo) was “Cardiovascular: Cardiac dysrhythmia (7.2%), Cardiorespiratory”. For the same compound, the Contusion (in vivo) was “Dermatologic: Contusion (13.3%), Flushing (19% to 22.3%)”, the Cough (in vivo) was “Respiratory: Cough (10.6% to 17.3%), Dyspnea (11.8%)” and the Dyspnea (in vivo) was “Respiratory: Cough (10.6% to 17.3%), Dyspnea (11.8%)”. For the same compound, the Fatigue (in vivo) was “Other: Fatigue (39.1%)”, the Flushing (in vivo) was “Dermatologic: Contusion (13.3%), Flushing (19% to 22.3%)” and the Hypercholesterolemia (in vivo) was “Endocrine metabolic: Hypercholesterolemia (Greater than 20%),”. For the same compound, the Hyperglycemia (in vivo) was “Hyperglycemia (56.6%), Hypertriglyceridemia (62.5%),”, the Hypertriglyceridemia (in vivo) was “Hyperglycemia (56.6%), Hypertriglyceridemia (62.5%),” and the Hypokalemia (in vivo) was “(17.2% to 28.3%)”. The Hypophosphatemia (in vivo) was “Hypophosphatemia (23.8%)”, the Joint swelling (in vivo) was “Musculoskeletal: Joint swelling (29.5% to 30.3%)” and the “Lymphocytopenia, All grades” value (in vivo) was “grades (38.2%)”. The “Lymphocytopenia, Grade 3 or 4” value (in vivo) was “Hematologic: Lymphocytopenia, Grade 3 or 4 (8.7%)”, the Serum bilirubin raised (in vivo) was “level raised (30.6% to 37.3%), Serum bilirubin raised (6.6%)” and the “Urinary tract infectious disease” value (in vivo) was “Renal: Urinary tract infectious disease (11.5%)”.

In the case of `CCOC(=O)[C@H](CCc1ccccc1)N[C@@H](C)C(=O)N1Cc2cc(OC)c(OC)cc2C[C@H]1C(=O)O` [Moexipril (Univasc)], the “Common side effects, listed without incidence” value (in vivo) is listed as “Other: Influenza-like symptoms”, the Cough (in vivo) is listed as “Respiratory: Cough (6.1%)” and the Diarrhea (in vivo) is listed as “Gastrointestinal: Diarrhea (3.1%)”. The Dizziness (in vivo) was “Neurologic: Dizziness (4.3%)”.

In the case of `C[C@@H]1CCN(C(=O)CC#N)C[C@@H]1N(C)c1ncnc2[nH]ccc12` [Xeljanz (Jak Compounds)], the Decreased lymphocyte count (in vivo) is listed as “Hematologic: Anemia, Decreased lymphocyte count (0.04%),”, the Headache (in vivo) is listed as “Neurologic: Headache (3.4% to 4.3%)” and the “Increased HDL level” value (in vivo) is listed as “Endocrine metabolic: Increased HDL level (10% to 12%), Raised”. The Infectious disease (in vivo) was “Immunologic: Infectious disease (20% to 22%), Opportunistic”, the Nasopharyngitis (in vivo) was “Respiratory: Nasopharyngitis (2.8% to 3.8%), Upper respiratory” and the Neutropenia (in vivo) was “Neutropenia (0.07%)”. The “Post-transplant lymphoproliferative disorder, Epstein Barr virus associated” value (in vivo) was “Barr virus associated (2.3%), Tuberculosis”, the “Raised low density lipoprotein cholesterol” value (in vivo) was “low density lipoprotein cholesterol (15% to 19%)” and the “Serious side effect, Dermatologic” value (in vivo) was “Dermatologic: Skin cancer, Non-melanoma”. The “Serious side effect, Gastrointestinal” value (in vivo) was “Gastrointestinal: Gastrointestinal perforation”, the “Serious side effect, Hematologic” value (in vivo) was “Hematologic: Anemia, Decreased lymphocyte count (0.04%),” and the “Serious side effect, Hepatic” value (in vivo) was “Hepatic: Injury of liver”. For the same compound, the “Serious side effect, Other” value (in vivo) was “Other: Cancer”, the Upper respiratory infection (in vivo) was “infection (3.8% to 4.5%)” and the “Urinary tract infectious disease” value (in vivo) was “Renal: Urinary tract infectious disease (2%)”.

For `C[C@H]1O[C@@H](O[C@H]2[C@@H](O)C[C@H](O[C@H]3[C@@H](O)C[C@H](O[C@H]4CC[C@@]5(C)[C@H](CC[C@@H]6[C@@H]5CC[C@]5(C)[C@@H](C7=CC(=O)OC7)CC[C@]65O)C4)O[C@@H]3C)O[C@@H]2C)C[C@H](O)[C@@H]1O` [Digitoxin], the “Common side effects, listed without incidence” value (in vivo) is listed as “Enlarged Breasts” and the “Infrequent side effects, listed” value (in vivo) is listed as “Sinus Bradycardia”.

For `O=C1Nc2ccc(Cl)cc2C(c2ccccc2Cl)=NC1O` (centres unmarked) [Lorazepam (Ativan)], the Acidosis (in vivo) is given as “Endocrine metabolic: Acidosis (less than 1%)”, the Asthenia (in vivo) is given as “Neurologic: Asthenia (4.2%), Dizziness (6.9%), Sedated (15.9%),” and the “Common side effects, listed without incidence” value (in vivo) is given as “Psychiatric: Depression”. For the same compound, the Dizziness (in vivo) was “Neurologic: Asthenia (4.2%), Dizziness (6.9%), Sedated (15.9%),”, the Sedated (in vivo) was “Neurologic: Asthenia (4.2%), Dizziness (6.9%), Sedated (15.9%),” and the “Serious side effects, listed without incidence or only as rare” value (in vivo) was “Psychiatric: Delirium”. For the same compound, the Unsteadiness present (in vivo) was “Unsteadiness present (3.4%)”.

For `Nc1ccncc1` [Ampyra], the Abdominal pain (in vivo) is given as “Gastrointestinal: Abdominal pain (7%), Nausea (7% to 13%),”, the Abnormal gait (in vivo) is given as “Musculoskeletal: Abnormal gait (5%), Backache (5%)” and the Anxiety (in vivo) is given as “Psychiatric: Anxiety (5%)”. The Asthenia (in vivo) was “Neurologic: Asthenia (7%), Dizziness (7%), Headache (7%),”, the Backache (in vivo) was “Musculoskeletal: Abnormal gait (5%), Backache (5%)” and the Dizziness (in vivo) was “Neurologic: Asthenia (7%), Dizziness (7%), Headache (7%),”. The Headache (in vivo) was “Neurologic: Asthenia (7%), Dizziness (7%), Headache (7%),”, the Insomnia (in vivo) was “Insomnia (9%)” and the Nausea (in vivo) was “Gastrointestinal: Abdominal pain (7%), Nausea (7% to 13%),”. The “Serious side effect, Immunologic” value (in vivo) was “Immunologic: Anaphylaxis, Hypersensitivity reaction”, the “Serious side effect, Neurologic” value (in vivo) was “Neurologic: Seizure” and the “Urinary tract infectious disease” value (in vivo) was “Renal: Urinary tract infectious disease (12%)”. For the same compound, the Vomiting (in vivo) was “Vomiting (13%)”.
